Laboratory results: publication PMC4704022, “Insights on FXR selective modulation. Speculation on bile acid chemical space in the discovery of potent and selective agonists” (Scientific Reports, 2016)
“Also recorded” adds a separate entry of the source.

Experiments:
[1] = target: T1, FXR (Homo sapiens, UniProt Q96RI1); assay: FXR transactivation luciferase reporter assay in transfected HepG2 cells; assay type: cell-based
T1 construct: expressed in transfected cells; host or cells: HepG2
T1 sequence (Q96RI1 1-486): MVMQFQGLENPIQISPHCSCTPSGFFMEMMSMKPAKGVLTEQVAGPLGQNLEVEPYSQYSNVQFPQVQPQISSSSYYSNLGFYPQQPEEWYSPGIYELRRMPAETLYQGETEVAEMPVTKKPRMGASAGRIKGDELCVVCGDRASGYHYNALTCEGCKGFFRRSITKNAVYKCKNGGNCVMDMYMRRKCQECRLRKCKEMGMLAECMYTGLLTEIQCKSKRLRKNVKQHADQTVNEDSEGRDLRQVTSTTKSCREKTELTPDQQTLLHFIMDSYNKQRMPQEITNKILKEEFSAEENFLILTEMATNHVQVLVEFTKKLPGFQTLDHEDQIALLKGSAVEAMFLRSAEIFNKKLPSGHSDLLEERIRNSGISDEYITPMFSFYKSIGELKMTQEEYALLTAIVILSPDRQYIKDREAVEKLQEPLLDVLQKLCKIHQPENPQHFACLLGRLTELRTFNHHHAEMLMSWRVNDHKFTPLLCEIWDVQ
T1 sequence (P19793 1-462 partner): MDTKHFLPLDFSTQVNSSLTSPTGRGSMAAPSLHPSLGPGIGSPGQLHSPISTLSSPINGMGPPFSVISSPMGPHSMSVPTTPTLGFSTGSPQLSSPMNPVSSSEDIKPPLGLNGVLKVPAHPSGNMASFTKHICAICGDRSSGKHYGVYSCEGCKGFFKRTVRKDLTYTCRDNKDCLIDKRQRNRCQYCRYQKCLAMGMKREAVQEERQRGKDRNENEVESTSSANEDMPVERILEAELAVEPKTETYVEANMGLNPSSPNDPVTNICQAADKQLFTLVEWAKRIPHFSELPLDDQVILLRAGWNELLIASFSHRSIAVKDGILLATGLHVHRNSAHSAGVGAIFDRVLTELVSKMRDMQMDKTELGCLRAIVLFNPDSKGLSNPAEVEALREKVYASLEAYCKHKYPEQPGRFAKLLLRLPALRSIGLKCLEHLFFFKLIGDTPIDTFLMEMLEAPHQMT
Protocol: Figure 6 Transactivation assays on FXR. (A) HepG2 cells were transfected with pSG5-FXR, pSG5-RXR, pCMV-βgal, and p(hsp27)TKLUC vectors. […] Twenty-four hour post transfection cells were stimulated with increasing concentrations of each agent: range from 100 nM to 10 μM.
To evaluate the transcriptional activity of FXR, HepG2 cells were transiently transfected with Fugene HD reagent (Promega) using the followings plasmids: pCMVSPORT-humanFXR, pSG5RXR, p(hsp27)TKLUC and pGL4.70, a plasmid containing the Renilla gene used for luciferase normalization.

[2] = target: T2, GPBAR1 (Homo sapiens, UniProt Q8TDU6); assay: GPBAR1 antagonism, transactivation assay in HEK-293T cells stimulated with TLCA; assay type: cell-based
T2 construct: expressed in transfected cells; host or cells: HEK-293T
T2 sequence (Q8TDU6 1-330): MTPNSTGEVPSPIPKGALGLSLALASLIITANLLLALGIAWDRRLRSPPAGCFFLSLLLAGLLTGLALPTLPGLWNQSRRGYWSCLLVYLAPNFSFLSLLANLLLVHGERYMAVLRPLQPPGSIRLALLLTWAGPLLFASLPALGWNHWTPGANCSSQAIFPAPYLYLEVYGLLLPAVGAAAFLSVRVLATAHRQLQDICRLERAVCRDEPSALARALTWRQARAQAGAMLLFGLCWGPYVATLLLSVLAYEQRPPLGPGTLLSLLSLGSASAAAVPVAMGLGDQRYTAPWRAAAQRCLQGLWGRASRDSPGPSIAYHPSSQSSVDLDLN
Description: Figure 9 Antagonism on GPBAR1 by transactivation assay. (A) HEK-293T cells were transfected as described in Fig. 8. […] Results are expressed as mean ± standard error.
(§1) To investigate GPBAR1 activation, HEK-293T cells were transiently transfected with Fugene HD reagent (Promega) using the following vectors: pCMVSPORT6-human GPBAR1, pGL4.29 (Promega), a reporter vector containing a cAMP response element (CRE) cloned upstream to the luciferase reporter gene luc2P and pGL4.70. […] Dose-response curves were performed in HEK-293T cells transfected as described above and treated with increasing concentrations of 9 and 21 (from 100 nM to 50 μM). […] At 18 h post stimulations, cellular lysate was assayed for luciferase and renilla activities using the Dual-Luciferase Reporter assay system (E1980, Promega). Luminescence was measured using Glomax 20/20 luminometer (Promega). Luciferase activities were normalized with Renilla activities.

[3] = target: T2, GPBAR1; assay: GPBAR1 agonism, CRE-luciferase transactivation assay in transfected HEK-293T cells; assay type: cell-based; settings: HEK-293T, compounds at 10 μM; TLCA 10 μM as positive control
Protocol: (A) HEK-293T cells were co-transfected with GPBAR1 and a reporter gene containing a cAMP responsive element in front of the luciferase gene. Twenty-four hour post transfection cells were stimulated with 7–21 (10 μM). Luciferase activity served as a measure of the rise in intracellular cAMP following activation of GPBAR1. […] Twenty-four hour post transfection cells were stimulated with increasing concentrations of each agent: range from 100 nM to 50 μM. Results are expressed as mean ± standard error.
as §1

CC[C@H]1[C@@H](O)[C@@H]2[C@H](CC[C@]3(C)[C@@H]([C@H](C)CCC(=O)O)CC[C@@H]23)[C@@]2(C)CCCC[C@@H]12 [compound 10, 6α-ethyl-7α-hydroxy-5β-cholan-24-oic acid]
EC50 ([1]; HepG2 cells transfected with FXR, luciferase reporter, 100 nM to 10 μM): 950 nM
FXR transactivation activity (in words) ([1]; HepG2 cells, compounds at 10 μM, CDCA 10 μM and 6-ECDCA 1 μM as positive controls): potent agonists of FXR
GPBAR1 antagonism (in words) ([2]; HEK-293T, 10 μM TLCA in combination with 25 μM compound): showed inhibitory activity against GPBAR1 transactivation induced by TLCA
IC50 ([2]; read-out: IC50, antagonism of TLCA-induced GPBAR1 transactivation): 11 µM
GPBAR1 agonism (in words) [3]: inactive towards GPBAR1 in agonistic mode; also recorded: devoid of any activity toward GPBAR1 in agonistic mode
Tauro-conjugated bile acids (tMu, tCA, tHCA, tCDCA, tDCA, tLCA), plasmatic concentration (mice, 15 mg/kg ip, 6 h): unaffected
Blood concentration of 7α-hydroxy-4-cholesten-3-one (mice, 15 mg/kg, indirect measure of CYP7A1 activity): reduced
Form of the compound found in blood (mouse, in vivo, ip, 15 mg/kg): only found in the conjugated form with taurine
